The test system of the assay is CEM cells HIV-1 protection, formazan growth assay. Put plainly: NCI AIDS Antiviral Assay. Conditions: for IC50: measured here: growth of uninfected CEM cells. The essentials:
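Protection of CEM cells against HIV-1 was scored from cell growth (soluble formazan) across five concentrations, with parallel uninfected cells. Lack of protection may reflect toxicity.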

Activity calls are given as the source filed them.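 The calls were made as follows: active = compounds giving half or more protection of infected cells from virus-caused growth loss, again on retest; inactive = the rest.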 Where a SMILES comes first, the peptide text is derived from it. [ ]: non-standard residue; d: D form. The star is where a group is joined. Phe(4-Cl) = N[CH](Cc1ccc(Cl)cc1)C(=O)O; 3Pal = N[CH](Cc1cccnc1)C(=O)O; Boc = CC(C)(C)OC(=O)*

`Clc1nc(Cl)nc(NC23CC4CC(CC(C4)C2)C3)n1`: the EC50 – broadly, the concentration at which the effect is half-maximal – was over 200 µM and the IC50 (as a rule, the concentration needed to halve the response being measured) worked out at 107 µM. Take `Nc1cc(F)c2cccnc2c1O`: the EC50 is over 200 µM and the IC50 stood at 11.7 µM. `O=C1NC2C(NC(=O)N2Cl)N1Cl` (stereo unspecified): the EC50 is over 200 µM and the IC50 is over 200 µM. With `COC(=O)CCNC(=O)OCc1ccccc1`, the EC50 was over 200 µM and the IC50 is over 200 µM. `C[C@]12CC[C@@H](O)C[C@H]1CC[C@@H]1[C@@H]2[C@@H](O)C[C@@]2(C)[C@H]1CC[C@]2(O)[C@@H](O)CO`: the EC50 is over 200 µM and the IC50 is over 200 µM. For `NC(CCCCCC(N)C(=O)O)C(=O)O` (stereo unspecified), the result was inactive.

Regarding `CN(C)c1ccc(/C=N/N(Cc2ccccc2)c2ccccc2)cc1`, the EC50 is over 6.03 µM and the IC50 is over 6.03 µM.

With `COc1cc2c(cc1OC)C1C[C@]3(CCN1CC2)C(=O)N(c1ccccc1)C(=O)N3C(C)=O` (stereo partly specified), the EC50 was over 10 µM and the IC50 is over 10 µM. For `COc1ccc(-c2c3c(nc4[nH]c(=S)[nH]c(=S)c24)CCCC3)cc1OC`, the EC50 was over 200 µM and the IC50 is 49 µM. The matching figures for `NC(=S)N/N=C(/CC(=O)c1ccccc1)C(=O)Nc1ccc(Cl)c(Cl)c1`: over 87.1 µM and over 87.1 µM. With `NNC(=O)C1CC2c3ccccc3C1c1ccccc12` (stereo unspecified), the result was inactive.

Consider `CNC(=S)SSSC(=S)NC`, for which the outcome was inactive. As to `CC(=O)NC(Cc1ccc(Cl)cc1)C(=O)NC(Cc1ccc(Cl)cc1)C(=O)NC(Cc1cccnc1)C(=O)NC(CO)C(=O)NC(Cc1ccc(O)cc1)C(=O)NC(CCCN=C(N)N)C(=O)NC(CC(C)C)C(=O)NC(CCCN=C(N)N)C(=O)N1CCCC1C(=O)NC(C)C(=O)O` (stereo unspecified) (Ac-[Phe(4-Cl)][Phe(4-Cl)][3Pal]SYRLRPA-OH; configuration not given here), the EC50 was over 17 µM and the IC50 is over 17 µM.

Consider `N#CC(C(N)=O)C(CC(=O)c1ccccc1)c1ccccc1` (stereo unspecified), for which the EC50 was over 200 µM and the IC50 came out at 145 µM.

For the compound `O=CC1(c2ccccc2)NC(=O)NC1=O` (stereo unspecified), the EC50 was over 200 µM and the IC50 was over 200 µM. Take `N/N=c1/nc2n(c3ncccc13)C=CNN2`: the EC50 was over 24.5 µM and the IC50 was over 24.5 µM. Regarding `O/N=C(\CC(O)(C(F)(F)F)C(F)(F)F)c1cccc(Cl)c1`, the EC50 was over 200 µM and the IC50 worked out at 10.7 µM. With `COC1=C(NC(C)=O)C(=O)c2nc3n(c2C1=O)CCC3`, the EC50 was over 200 µM and the IC50 was determined as 75.9 µM. With `Cc1cc(-c2cc(C)c(N)c(S(=O)(=O)O)c2)cc(S(=O)(=O)O)c1N`, the result was inactive. With `COc1ccc(-c2c3ccccc3c(-c3ccc(OC)cc3)c3ccccc23)cc1`, the EC50 was over 2.69 µM and the IC50 was over 2.69 µM. With `COC(=O)C1=C(CS(=O)c2ccccc2[N+](=O)[O-])C2C=CC1C2` (stereo unspecified), the outcome was inactive. For `CN(C)Cc1cc(C(=O)/C=C/c2ccc(Cl)c(Cl)c2)cc(CN(C)C)c1O`, the EC50 was over 200 µM and the IC50 is 2.75 µM. The matching figures for `CCNCC(O)c1ccc(N)c([N+](=O)[O-])c1` (stereo unspecified): over 200 µM and over 200 µM.

Turning to `S=C1CC(=S)NC(=S)N1`, the EC50 was over 513 µM and the IC50 is over 513 µM. Turning to `Cn1c(=O)cc(Nc2ccc(N)cc2)[nH]c1=O`, the EC50 was over 200 µM and the IC50 is over 200 µM.

Turning to `Cc1nnc(NS(=O)(=O)c2ccc(N=Nc3cc4ccccc4c(C(=O)O)c3O)cc2)s1`, the EC50 was over 200 µM and the IC50 stood at 22.9 µM. The matching figures for `Cc1ccccc1Nc1nc2ccccc2nc1NS(=O)(=O)c1ccccc1`: over 200 µM and over 200 µM. In the case of `CC1C(=NO)C(C)C(c2ccccc2)N(N=O)C1c1ccccc1` (stereo unspecified), the EC50 is over 200 µM and the IC50 is over 200 µM. In the case of `CCNc1cnc2c(n1)c(=O)n(C)c(=O)n2C`, the EC50 was over 200 µM and the IC50 is over 200 µM. On to `Oc1c(OCc2nnc(CCCCCCCCc3nnc(COc4ccc5ccccc5c4O)n3Nc3ccccc3)n2Nc2ccccc2)ccc2ccccc12`, for which the EC50 was over 2 µM and the IC50 is over 2 µM.

On to `Cc1c(C)[n+](=O)c2ccc(/C=[N+](/[O-])CCO)cc2n1[O-]`, for which the result was inactive. As to `Cc1ccc(C(=O)NC(C)(C)C)cc1N=NN(C)C`, the EC50 is over 138 µM and the 50% inhibitory concentration (IC50) was over 138 µM. `COC(=O)c1c(C)cccc1C1CN=NC12Cc1cc(C)c(C)cc1C2=O` (stereo unspecified): the EC50 was over 200 µM and the IC50 is 120 µM. For `COc1cccc2c1C(=O)C1=C(C2=O)C(O)CC(C)(C)O1` (stereo unspecified) the same measures were over 200 µM and 33.9 µM.

For the compound `CN(C)C(=S)SC(=S)N(C)C`, the EC50 is over 200 µM and the IC50 is 11 µM. For `N#Cc1c(N)oc2cc3c(C#N)c(N)oc3cc12`, the result was inactive. On the same count and under the same terms, the value for `COC(=O)C1C2OC(C)(C)OC2CN1S(=O)(=O)c1ccc(C)cc1` (stereo unspecified) was “inactive”. For the compound `O=C1c2ccccc2C(=O)N1CCn1nc(-c2ccccc2)cc(-c2ccccc2)c1=O`, the EC50 was over 12.3 µM and the IC50 was over 12.3 µM. For the compound `NC(=O)Nc1c([N+](=O)[O-])cc(C(F)(F)F)cc1[N+](=O)[O-]`, the result was inactive. Take `Cn1c2c(c3ccccc3c1=O)C(=O)c1ccccc1-2`: the EC50 is over 14.5 µM and the IC50 is 7.41 µM.

Consider `C=C(C)[C@H]1CC(=O)[C@@]2(C)C[C@H]3O[C@]3(C)CC/C=C(\C)CC[C@H]12`, for which the EC50 was over 200 µM and the IC50 is 55 µM.

For the compound `COc1ccc(NC(=O)C(=O)NNC(=O)c2sc(NNC(C)=O)nc2C)c([N+](=O)[O-])c1`, the EC50 was over 30.2 µM and the IC50 was over 30.2 µM.

For the compound `O=C(NCCCCl)c1c(O)c2ccccc2[nH]c1=O`, the EC50 was over 200 µM and the IC50 amounted to 81.3 µM. Turning to `CCOC(=O)C(CC(C)C)NC(=O)C(Cc1ccccc1)NC(=O)CNC(=O)OC(C)(C)C` (stereo not drawn) (Boc-Gly-Phe-Leu-OEt; configuration not given here), the EC50 is over 200 µM and the IC50 was found to be 8.51 µM.

Regarding `O=[N+]([O-])C1=Cc2cc(Cl)ccc2OC1c1cccc2ccccc12` (stereo unspecified), the EC50 is over 2 µM and the IC50 was 0.977 µM.

Take `O=C1c2ccccc2C(=O)c2cc(N=Nc3c(O)ccc4ccccc34)ccc21`: the EC50 is over 100 µM and the IC50 is over 100 µM. For the compound `CC(C)(Cc1ccccc1)NC1=NCCO1`, the EC50 is over 200 µM and the IC50 is over 200 µM. Turning to `N#CCCN(CCC#N)CCN(CCN(CCC#N)CCC#N)CCN(CCC#N)CCC#N`, the EC50 is over 200 µM and the IC50 is over 200 µM. Take `O=Cc1c(-c2ccccc2)nc2sc(-c3ccc4c(c3)OCO4)nn12`: the result was inactive. Take `O=C1Cc2ccccc2CCc2ccccc21`: the EC50 is 135 µM and the half-maximal inhibitory concentration (IC50) is over 200 µM. For `COc1ccc2c3c([nH]c2c1)CCN(CCCC(=O)c1ccc(F)cc1)C3` the same measures were over 200 µM and 32.4 µM. The matching figures for `Cc1c(C(=O)C/C(=N/NC(=O)CC#N)C(N)=O)[n+](=O)c2ccccc2n1[O-]`: over 26.9 µM and over 26.9 µM. For `O=C(O)Cn1[se]c2ccccc2c1=O` the same measures were 46.8 µM and 120 µM. Turning to `O=C(Cc1ccccc1)Nn1c(-c2ccccc2)nc2ccccc2c1=O`, the EC50 was 123 µM and the IC50 was over 200 µM. For `COC(=O)C1(Cc2ccccc2)Cc2ccccc2C1O` (stereo unspecified) the same measures were over 200 µM and 91.2 µM. The matching figures for `Clc1ccccc1C=NCC1CCC(CN=Cc2ccccc2Cl)CC1` (stereo unspecified): over 200 µM and 9.12 µM. The matching figures for `Cn1c2ccccc2c2nnc(-n3nc(-c4ccccc4)cc3N)nc21`: over 200 µM and 53.7 µM. In the case of `Cc1nc(N)nn1C1OCC(O)C(O)C1O` (stereo unspecified), the outcome was inactive. Turning to `CC1C2CC(C(C3C(=O)C4CC3C(C)(C)C4C)C2=O)C1(C)C` (stereo unspecified), the EC50 was over 437 µM and the IC50 was over 437 µM. Take `[CH3][Sn]([CH3])([Cl])[CH2]C(P(=O)(c1ccccc1)c1ccccc1)P(=O)(c1ccccc1)c1ccccc1`: the EC50 is over 50.1 µM and the IC50 worked out at 2.29 µM.

`CCOC(=O)[C@H]1Nc2c(cccc2[N+](=O)[O-])C2c3ccccc3CC21` (stereo partly specified): the EC50 is over 15.5 µM and the IC50 was over 15.5 µM. As to `O=C1C=Cc2c(Cl)sc(Cl)c21`, the EC50 is over 200 µM and the IC50 came out at 0.794 µM.

On to `N#CC(C#N)=Cn1ccc(=O)[nH]c1=S`, for which the EC50 is over 200 µM and the IC50 is over 200 µM. In the case of `O=c1ccc2cc(Cl)ccc2o1`, the EC50 is over 75.9 µM and the IC50 is over 75.9 µM. `CCCCCCCCCCCCCCCCCCSCC(C)(COP(=O)(O)OP(=O)(O)OCC1OC(n2cc(C)c(=O)[nH]c2=O)CC1N=[N+]=[N-])OC(=O)CCCCCCCCCCCCCCC` (stereo unspecified): the EC50 is 3.24 µM and the IC50 was 60.3 µM. For `CC(C)CC(N)C(=O)NC(Cc1ccc(O)cc1)C(=O)NC(CCC(=O)O)C(=O)N1CCCC1C(=O)NC(CO)C(=O)NC(Cc1ccc(O)cc1)C(=O)NC(C)C(=O)N1CCCC1C(=O)NC(CC(N)=O)C(=O)NC(Cc1cnc[nH]1)C(=O)NC(Cc1ccccc1)C(=O)O` (stereo unspecified) (H-LYEPSYAPNHF-OH; configuration not given here), the outcome was inactive. As to `O=C1/C(=C/c2ccc([N+](=O)[O-])cc2)CCc2ccccc21`, the EC50 is over 7.24 µM and the IC50 is over 7.24 µM.

Turning to `O=C1c2ccccc2C(=O)c2c(S)cccc21`, the EC50 is 148 µM and the half-inhibitory concentration (IC50) is over 200 µM.

Consider `COC(=O)/C(C#N)=C/NC(=S)Nc1ccccc1`, for which the EC50 is over 200 µM and the IC50 is over 200 µM. `O=C1OC2(c3ccc(O)cc3Oc3cc(O)ccc32)c2ccccc21`: the EC50 was over 50.1 µM and the IC50 was over 50.1 µM.

With `CCOC(=O)Nn1cnnc1Cc1ccccc1`, the EC50 is over 200 µM and the IC50 was over 200 µM. With `CC(C)=NNC(=S)NC12CC3CC(CC(C3)C1)C2`, the outcome was inactive.

Source of the values: PubChem BioAssay AID179 (DTP/NCI, 2004).
